Experimental data from patent US9987315B2 (priority 2005, dated 2018).

Experiments:
RL5 = format: cell-based, rabbit
RK-13 = format: cell-based, rabbit
BGMK = format: cell-based, primate

Measured: effect of rapamycin on replication of myxoma virus (virus titre by foci formation on BGMK cells)

CO[C@H]1C[C@@H]2CC[C@@H](C)[C@@](O)(O2)C(=O)C(=O)N2CCCC[C@H]2C(=O)O[C@H]([C@H](C)C[C@@H]2CC[C@@H](O)[C@H](OC)C2)CC(=O)[C@H](C)/C=C(\C)[C@@H](O)[C@@H](OC)C(=O)[C@H](C)C[C@H](C)/C=C/C=C/C=C/1C [rapamycin]
no effect: all assays above
